Common to all, as to test: NCI-60 cell line screen, 48 h
The subject of assay [1] is CCRF-CEM.
Assay [2] has as its system HCT-116.
Assay [3] concerns HCT-15.
In assay [4] the test system is HOP-62.
Assay [5] relates to 786-0.
In assay [6] the test system is OVCAR-5.
Assay [7] deals with MCF7.
Assay [8] concerns MDA-MB-435.
Assay [9] concerns SF-295.
For assay [10], the system named is UACC-257.
Assay [11] deals with Hs-578T.
Assay [12] relates to OVCAR-8.
The subject of assay [13] is MOLT-4.
Assay [14] concerns SNB-75.
Assay [15] has as its system SF-268.
The subject of assay [16] is UO-31.
The subject of assay [17] is HCC 2998.
Assay [18] has as its system SK-MEL-5.
Assay [19] has as its system SN12C.
Assay [20] deals with A498.

Results on ten compounds are retold here after ChEMBL document CHEMBL1201862, “PubChem BioAssay data set” (2004).

Molecules are shown by their SMILES.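 These data come from cells grown in 96-well plates and exposed to compound for 48 hours at five concentrations. The concentration for 50% growth inhibition is given as GI50.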 Active and inactive are the calls of the source. Cut-off read from the data, not from the text of the source: active = GI50 up to about 1.1 µM and inactive = higher.

Take `C/C(=N\NC(=S)N1CCN(c2ccccn2)CC1)c1ncccn1`: the GI50 in assay [1] was 0.00615 µM (active); in assay [2] it was 0.00395 µM (active); in [3] it was 0.02 µM; in [4], 0.106 µM (active); in [5], 0.0601 µM (active); in assay [6], 0.0303 µM (active). In addition, the GI50 in [7] is 0.0108 µM (active); in assay [8], 2.83 µM (inactive); in assay [9] it was 0.0594 µM (active); in assay [10] it was 0.0165 µM (active); in assay [11], 1.87 µM (inactive); in assay [12] it was 0.0289 µM (active). Further, the GI50 in [13] was 0.0116 µM (active); in [14] it was 3.43 µM (inactive); in assay [15], 0.0323 µM (active); in assay [16] it was 0.993 µM (active); in [17], 0.361 µM (active); in assay [18], 0.109 µM (active). Besides, the GI50 is 0.566 µM (active) in assay [19] and 2.07 µM (inactive) in assay [20].

With `Cn1c(=O)[nH]c2[nH]c3ccccc3c2c1=O`, the GI50 in assay [1] was > 100 µM (inactive); in assay [2] it was > 100 µM (inactive); in [3], > 100 µM; in assay [4], > 100 µM (inactive); in assay [5], > 100 µM (inactive); in assay [6], > 100 µM (inactive). The GI50 in assay [7] is > 100 µM (inactive); in assay [8], > 100 µM (inactive); in [9], > 100 µM (inactive); in assay [10] it was > 100 µM (inactive); in assay [11], 65.5 µM (inactive); in [12], > 100 µM (inactive). Further, the GI50 in assay [13] is > 100 µM (inactive); in [14], 32.1 µM (inactive); in assay [15], > 100 µM (inactive); in assay [16], > 100 µM (inactive); in assay [17] it was > 100 µM (inactive); in assay [18] it was > 100 µM (inactive). Moreover, the GI50 in [19] and in assay [20] was > 100 µM (inactive) in each case.

For the compound `O=C1C=C(OCCCCl)C(=O)c2c(O)ccc(O)c21`, the GI50 is 0.661 µM (active) in assay [1]; 0.459 µM (active) in assay [2]; 0.422 µM in [3]; 1.42 µM (inactive) in assay [4]; 1.56 µM (inactive) in assay [5]; 1.43 µM (inactive) in [6]. Also, the GI50 is 0.195 µM (active) in assay [7]; 0.206 µM (active) in assay [8]; 0.82 µM (active) in assay [9]; 0.176 µM (active) in assay [10]; 2.42 µM (inactive) in [11]; 2.07 µM (inactive) in assay [12]. In addition, the GI50 in assay [13] is 2.11 µM (inactive); in [14], 1.4 µM (inactive); in assay [15], 1.73 µM (inactive); in assay [16], 1.18 µM (inactive); in assay [17] it was 1.91 µM (inactive); in [18], 0.163 µM (active). Also, the GI50 was 0.35 µM (active) in assay [19] and 2.13 µM (inactive) in assay [20].

`CCN(CC)c1c(C(C)(C)C)c(=O)n2ccsc2c1OC(C)=O`: the GI50 in assay [1] was 49 µM (inactive); in [2] it was 13.6 µM (inactive); in assay [3] it was 16.5 µM; in assay [4], 13.3 µM (inactive); in assay [5] it was 19.9 µM (inactive); in assay [6] it was 15.8 µM (inactive). Also, the GI50 was 15.6 µM (inactive) in assay [7]; 18 µM (inactive) in assay [8]; 17.1 µM (inactive) in assay [9]; 16.5 µM (inactive) in assay [10]; 22.9 µM (inactive) in assay [11]; 15 µM (inactive) in assay [12]. Besides, the GI50 in [13] is 17.8 µM (inactive); in assay [14], 15 µM (inactive); in assay [15], 15.2 µM (inactive); in [16], 17.9 µM (inactive); in [17] it was 17.4 µM (inactive); in [18] it was 18.1 µM (inactive). In addition, the GI50 is 18.2 µM (inactive) in assay [19] and 19.2 µM (inactive) in assay [20].

`NNC(=O)c1ccccc1NC(=O)/C(=C/c1ccccc1)NC(=O)c1ccccc1`: the GI50 in [1] was 43.6 µM (inactive); in [2] it was 88.1 µM (inactive); in [3], 46.7 µM; in assay [4], 49.1 µM (inactive); in assay [5], > 100 µM (inactive); in [6], > 100 µM (inactive). The GI50 was > 100 µM (inactive) in [7]; 54.3 µM (inactive) in assay [8]; > 100 µM (inactive) in [9]; 71.6 µM (inactive) in assay [10]; 54.1 µM (inactive) in assay [11]; > 100 µM (inactive) in [12]. For the same compound, the GI50 in assay [13] was > 100 µM (inactive); in [14], 70.1 µM (inactive); in assay [15] it was > 100 µM (inactive); in [16], 65.3 µM (inactive); in assay [17], > 100 µM (inactive); in assay [18], > 100 µM (inactive). Further, the GI50 in [19] and in [20] was > 100 µM (inactive) in each case.

`Cc1ccc(/C=C2\CCCC(CN3CCCCC3)C2=O)cc1` (stereo not given): the GI50 in [1] was 0.757 µM (active); in assay [2], 1.76 µM (inactive); in assay [3] it was 2.14 µM; in assay [4], 20.3 µM (inactive); in [5], 2.02 µM (inactive); in [6], 15 µM (inactive). Moreover, the GI50 was 0.721 µM (active) in assay [7]; 1.82 µM (inactive) in [8]; 17.2 µM (inactive) in assay [9]; 1.93 µM (inactive) in assay [10]; 2.13 µM (inactive) in [11]; 2.64 µM (inactive) in assay [12]. For the same compound, the GI50 in assay [13] is 4 µM (inactive); in assay [14], 4.66 µM (inactive); in [15], 2.09 µM (inactive); in assay [16], 1.84 µM (inactive); in [17] it was 15.3 µM (inactive); in [18], 4.66 µM (inactive). The GI50 in [19] was 2.96 µM (inactive); in [20] it was 13.4 µM (inactive).

In the case of `CCOc1ccc2ccccc2c1NC1=NCCO1`, the GI50 was 39.1 µM (inactive) in [1]; 36.9 µM (inactive) in assay [2]; > 100 µM in [3]; 28.2 µM (inactive) in assay [4]; > 100 µM (inactive) in [5]; > 100 µM (inactive) in assay [6]. Further, the GI50 in [7] was 37.8 µM (inactive); in [8] it was 25.8 µM (inactive); in assay [9], 19.1 µM (inactive); in assay [10], 34.6 µM (inactive); in assay [11] it was 23.1 µM (inactive); in assay [12], 74.6 µM (inactive). In addition, the GI50 was 27.5 µM (inactive) in assay [13]; 34.6 µM (inactive) in [14]; > 100 µM (inactive) in assay [15]; 21 µM (inactive) in assay [16]; 38.5 µM (inactive) in assay [17]; 44.9 µM (inactive) in assay [18]. Besides, the GI50 was > 100 µM (inactive) in assay [19] and 35.1 µM (inactive) in [20].

With `CC(C)CC(C#CCCOC(=O)c1ccccc1)OC(=O)c1ccccc1` (stereo not given), the GI50 is > 10 µM (inactive) in assay [1]; > 10 µM (inactive) in assay [2]; > 10 µM in assay [3]; > 10 µM (inactive) in assay [4]; > 10 µM (inactive) in assay [5]; > 10 µM (inactive) in assay [6]. Also, the GI50 in assay [7], in assay [8], in assay [9], in [10], in assay [11] and in assay [12] was > 10 µM (inactive) in each case. Besides, the GI50 in assay [13] was > 10 µM (inactive); in assay [14], 0.445 µM (active); in assay [15], > 10 µM (inactive); in assay [16], > 10 µM (inactive); in assay [17], > 10 µM (inactive); in assay [18], > 10 µM (inactive). For the same compound, the GI50 in [19] and in assay [20] was > 10 µM (inactive) each time.

For `N=C(N)c1ccc(/C=C/c2ccc(C(=N)N)cc2)cc1`, the GI50 in assay [1] is > 100 µM (inactive); in assay [2], > 100 µM (inactive); in assay [3], > 100 µM; in [4] it was 41.2 µM (inactive); in assay [5] it was 62.1 µM (inactive); in [6], 81.8 µM (inactive). Further, the GI50 in assay [7] is 96.6 µM (inactive); in [8], > 100 µM (inactive); in [9], 34.4 µM (inactive); in assay [10] it was 65.9 µM (inactive); in assay [11], 48 µM (inactive); in assay [12], 85.7 µM (inactive). The GI50 in [13] is > 100 µM (inactive); in assay [14], 32.1 µM (inactive); in assay [15] it was > 100 µM (inactive); in [16], > 100 µM (inactive); in assay [17] it was 90.8 µM (inactive); in [18] it was 29.1 µM (inactive). Further, the GI50 is 22.7 µM (inactive) in assay [19] and 14.9 µM (inactive) in [20].

As to `CO[C@]12C[C@@H](CNC(=O)c3cc(Br)c[nH]3)O[C@H]1NC(=O)N2`, the GI50 in [1] is > 100 µM (inactive); in assay [2] it was > 100 µM (inactive); in assay [3] it was > 100 µM; in assay [4], > 100 µM (inactive); in [5], > 100 µM (inactive); in assay [6], > 100 µM (inactive). The GI50 in assay [7], in assay [8], in [9], in [10], in assay [11] and in assay [12] was > 100 µM (inactive) throughout. Also, the GI50 in [13], in assay [14], in assay [15], in assay [16], in [17] and in assay [18] was > 100 µM (inactive) throughout. Moreover, the GI50 in assay [19] and in assay [20] was > 100 µM (inactive) each time.
